Reference: patent US11815435B2, “Beta glucan immunopharmacodynamics” (HiberCell, Inc., priority 2017, dated 2023)

System: anti-β-glucan antibody (ABA IgG, ABA IgM)
Experiment: Example 1: IgG and IgM ABA levels in a cancer subject on IVIG, IMPRIME PGG and pembrolizumab
Assay type: in vivo, human
Details: same subject and regimen
Protocol: Soluble β-glucan immunotherapy was administered to a subject diagnosed with glucaganoma. The subject's ABA level prior to immunotherapy treatment placed them in the Low-ABA subgroup, and therefore, their ABA level was boosted by administration of IVIG. GAMMAGARD at 100 mg/ml was intravenously administered prior to each treatment, which provided 161 μg ABA/ml. […] Each cycle was 3 weeks.

pembrolizumab [reference compound]
ABA IgG (cycle 1, day 2 EOI pembro): 18.2 µg/mL | ABA IgM (cycle 1, day 2 EOI pembro): 5.3 µg/mL | ABA IgG (cycle 2, day 1 EOI-pembro): 49.4 µg/mL | ABA IgM (cycle 2, day 1 EOI-pembro): 9.6 µg/mL | ABA IgG (cycle 3, day 1 EOI-pembro): 60.7 µg/mL
